Patent US20110092476A1, “Bicycloheteroaryl compounds as P2X7 modulators and uses thereof” (Renovis, Inc., priority 2006, published 2011)
pIC50: −log10 of the molar value. Converted amounts (≈) assume the structure as drawn. Where two headings read alike, the source gives them in different places.

Key:
P2X7 receptor = biological target: T1, P2X7 receptor (Homo sapiens, UniProt Q99572); test: IL-1β release assay in differentiated THP-1 cells stimulated with BzATP (Example 9); format: cell-based; settings: BzATP 250 uM; for inhibition at 0.3 µM: differentiated THP-1 cells, read-out: IL-1β % Inhib. @ 0.3 or 0.1 uM; for pIC50: THP-1 cells, IL-1β by ELISA
T1 construct: host or cells: THP-1 cells differentiated with LPS and IFN-γ
T1 sequence (Q99572 1-595): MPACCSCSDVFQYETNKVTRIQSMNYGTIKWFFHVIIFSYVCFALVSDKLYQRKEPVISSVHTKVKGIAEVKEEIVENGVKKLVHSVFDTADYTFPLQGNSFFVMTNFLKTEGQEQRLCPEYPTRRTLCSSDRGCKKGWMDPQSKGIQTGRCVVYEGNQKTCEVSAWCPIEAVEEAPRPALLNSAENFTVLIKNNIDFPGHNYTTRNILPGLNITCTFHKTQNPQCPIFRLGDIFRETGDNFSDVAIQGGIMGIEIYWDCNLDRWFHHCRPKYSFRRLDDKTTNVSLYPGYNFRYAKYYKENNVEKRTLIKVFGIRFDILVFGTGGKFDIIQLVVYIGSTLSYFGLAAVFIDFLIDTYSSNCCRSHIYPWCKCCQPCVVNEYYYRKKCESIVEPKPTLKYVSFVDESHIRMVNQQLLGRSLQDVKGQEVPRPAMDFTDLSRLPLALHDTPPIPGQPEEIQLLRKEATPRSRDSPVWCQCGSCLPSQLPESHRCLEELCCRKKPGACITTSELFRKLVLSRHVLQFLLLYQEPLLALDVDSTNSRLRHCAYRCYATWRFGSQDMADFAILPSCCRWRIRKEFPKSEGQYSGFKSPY
Method in brief: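 THP-1 cells differentiated 16 h with 100 ng/mL LPS and 100 ng/mL IFN-γ, primed 2 h with fresh LPS, pretreated 30 min with compound, then stimulated 45 min with 250 uM BzATP (final). Supernatant IL-1β measured by ELISA; background-adjusted percent inhibition fitted to a four-parameter logistic for IC50.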

[1] = Determination of aqueous (kinetic) solubility; format: physicochemical; settings: aqueous buffer, kinetic from dmso stock, buffer pH 7.4
Method: The mixture was vortexed for 1 hour and equilibrated overnight at room temperature. The mixture was filtered through a saturated filter and the filtrate was analyzed by LC/MS/MS.
For the purpose of Table 5, solubility of each compound is expressed as follows: […]

Row | inhibition at 0.3 µM (P2X7 receptor; 0.3 μM compound (symbols +)) | solubility [1] | inhibition at 0.3 µM (P2X7 receptor; 0.3 μM compound, "+" symbols) | pIC50 (P2X7 receptor) | Structure (SMILES)
1 | 26 to 50% | < 25 µM |  |  | O=C(Cc1ccc(C(F)(F)F)cc1)Nc1cccc2c(=O)n(CCO)ccc12 [Compound 7]
2 | > 76% | < 25 µM |  |  | O=C(Cc1ccc(Cl)cc1Cl)Nc1cccc2c(=O)n(CCO)ccc12 [Compound 69]
3 | > 76% | > 75 µM |  |  | O=C(Cc1ccc(Cl)c(Cl)c1)Nc1cccc2c(=O)n(C(CO)CO)ccc12 [Compound 80]
4 |  | 26 to 50 µM (≈ 11.7 to 22.6 µg/mL) | > 76% |  | C[C@@H](C(N)=O)n1ccc2c(NC(=O)Cc3ccc(Cl)cc3C(F)(F)F)cccc2c1=O [Compound 237, (S)-2-{5-[2-(4-Chloro-2-trifluoromethyl-phenyl)-acetylamino]-1-oxo-1H-isoquinolin-2-yl}-propionamide]
5 |  | < 25 µM | > 76% |  | NC(=O)Cn1ccc2c(NC(=O)Cc3ccc(Cl)c(C(F)(F)F)c3)cccc2c1=O [Compound 249, 2-{5-[2-(4-Chloro-3-trifluoromethyl-phenyl)-acetylamino]-1-oxo-1H-isoquinolin-2-yl}-acetamide]
6 |  | > 75 µM | > 76% |  | C[C@H](C(N)=O)n1ccc2c(NC(=O)[C@H](C)c3ccc(Cl)cc3)cccc2c1=O [Compound 262]
7 |  | > 75 µM | > 76% |  | C[C@@H](C(=O)Nc1cccc2c(=O)n([C@@H](C)C(N)=O)ccc12)c1ccc(Cl)cc1 [Compound 266]
8 |  | > 75 µM | > 76% |  | CC(C)[C@H](C(N)=O)n1ccc2c(NC(=O)[C@@H](C)c3ccc(Cl)cc3)cccc2c1=O [Compound 283]
9 |  | > 75 µM | > 76% |  | CC(C)[C@H](C(N)=O)n1ccc2c(NC(=O)[C@H](C)c3ccc(Cl)cc3)cccc2c1=O [Compound 284, (R)-2-{5-[(R)-2-(4-Chloro-phenyl)-propionylamino]-1-oxo-1H-isoquinolin-2-yl}-3-methyl-butyramide]
10 |  | < 25 µM | > 76% |  | C[C@H](C(N)=O)n1ccc2c(NC(=O)Cc3ccc(Cl)c(F)c3)cccc2c1=O [Compound 300]
11 |  | 26 to 50 µM (≈ 10.4 to 20.1 µg/mL) | > 76% |  | C[C@H](C(N)=O)n1ccc2c(NC(=O)Cc3ccc(F)c(Cl)c3)cccc2c1=O [Compound 301]
12 |  | < 25 µM | > 76% |  | C[C@H](C(N)=O)n1ccc2c(NC(=O)Cc3ccc(F)c(C(F)(F)F)c3)cccc2c1=O [Compound 304]
13 |  | < 25 µM | > 76% |  | C[C@H](C(N)=O)n1ccc2c(NC(=O)Cc3ccc(C(F)(F)F)c(F)c3)cccc2c1=O [Compound 306]
14 |  | < 25 µM | > 76% |  | C[C@H](C(N)=O)n1ccc2c(NC(=O)Cc3ccc(F)c(Br)c3)cccc2c1=O [Compound 307]
15 |  | 51 to 75 µM (≈ 21.4 to 31.4 µg/mL) | > 76% |  | C[C@H](CO)n1ccc2c(NC(=O)[C@H](C)c3ccc(Cl)c(Cl)c3)cccc2c1=O [Compound 320]
16 |  | > 75 µM | > 76% |  | C[C@H](CO)n1ccc2c(NC(=O)Cc3ccc(Cl)c(Cl)c3)cccc2c1=O [Compound 333, 2-(3,4-Dichloro-phenyl)-N-[2-((R)-2-hydroxy-1-methyl-ethyl)-1-oxo-1,2-dihydro-isoquinolin-5-yl]-acetamide]
17 |  | < 25 µM | > 76% |  | CC(C(=O)Nc1cccc2c(=O)n([C@H](C)C(N)=O)ccc12)c1cccc(C(F)(F)F)c1F (stereo partly drawn) [Compound 337]
18 |  | > 75 µM | > 76% |  | C[C@H](CO)n1ccc2c(NC(=O)Cc3ccc(C(F)(F)F)cc3C(F)(F)F)cccc2c1=O [Compound 361]
19 |  |  | > 76% |  | CC(C)(CO)n1ccc2c(NC(=O)Cc3ccc(C(F)(F)F)c(F)c3)cccc2c1=O [Compound 365]
20 |  |  | 0 to 25% |  | CC(C)(CO)n1ccc2c(NC(=O)Cc3ccc(C(F)(F)F)cc3C(F)(F)F)cccc2c1=O [Compound 366]

Row | inhibition at 0.3 µM (P2X7 receptor; 0.3 μM compound (symbols +)) | solubility [1] | inhibition at 0.3 µM (P2X7 receptor; 0.3 μM compound, "+" symbols) | pIC50 (P2X7 receptor) | Structure (SMILES)
21 |  |  | > 76% |  | CC(C)(CO)n1ccc2c(NC(=O)Cc3ccc(F)c(C(F)(F)F)c3)cccc2c1=O [Compound 367]
22 |  |  | > 76% |  | CC(C)(CO)n1ccc2c(NC(=O)Cc3cccc(C(F)(F)F)c3F)cccc2c1=O [Compound 368]
23 |  |  | > 76% |  | CC(C)(CO)n1ccc2c(NC(=O)Cc3ccc(C(F)(F)F)cc3F)cccc2c1=O [Compound 370]
24 |  |  | 51 to 75% |  | CC(C)(CO)n1ccc2c(NC(=O)Cc3ccc(Cl)c(Cl)c3)cccc2c1=O [Compound 371]
25 |  |  | 0 to 25% |  | CC(C)(CO)n1ccc2c(NC(=O)Cc3ccc(F)c(Cl)c3)cccc2c1=O [Compound 372]
26 |  |  | 51 to 75% |  | CC(C)(CO)n1ccc2c(NC(=O)Cc3ccc(Cl)c(F)c3)cccc2c1=O [Compound 373]
27 |  |  | > 76% |  | CC(C)(CO)n1ccc2c(NC(=O)Cc3ccc(Cl)cc3F)cccc2c1=O [Compound 374]
28 |  |  | > 76% |  | C[C@H](CO)n1ccc2c(NC(=O)Cc3ccc(C(F)(F)F)cc3F)c(Cl)ccc2c1=O [Compound 378]
29 |  |  | > 76% |  | C[C@H](C(N)=O)n1ccc2c(NC(=O)Cc3ccc(F)c(F)c3F)cccc2c1=O [Compound 379]
30 |  |  | > 76% |  | C[C@H](C(N)=O)n1ccc2c(NC(=O)Cc3ccc(C(F)(F)F)cc3C(F)(F)F)cccc2c1=O [Compound 380]
31 |  |  | > 76% |  | C[C@H](C(N)=O)n1ccc2c(NC(=O)Cc3cc(F)c(F)c(F)c3)cccc2c1=O [Compound 381]
32 |  |  | > 76% |  | C[C@H](CO)n1ccc2c(NC(=O)Cc3ccc(C(F)(F)F)c(F)c3)c(C3CC3)ccc2c1=O [Compound 384, N-[6-Cyclopropyl-2-((R)-2-hydroxy-1-methyl-ethyl)-1-oxo-1,2-dihydro-isoquinolin-5-yl]-2-(3-fluoro-4-trifluoromethyl-phenyl)-acetamide]
33 |  |  | 0 to 25% |  | O=C(Cc1cccc(C(F)(F)F)c1F)Nc1c(NCCO)ccc2c(=O)n(CCO)ccc12 [Compound 385, 2-(2-Fluoro-3-trifluoromethyl-phenyl)-N-[2-(2-hydroxy-ethyl)-6-(2-hydroxy-ethylamino)-1-oxo-1,2-dihydro-isoquinolin-5-yl]-acetamide]
34 |  |  | > 76% |  | O=C(Cc1cccc(C(F)(F)F)c1F)Nc1c(Cl)ccc2c(=O)n(CCO)ccc12 [Compound 387]
35 |  |  | 0 to 25% | < 6.00 | CC(=O)NCCn1ccc2c(NC(=O)Cc3ccc(C(F)(F)F)c(F)c3)cccc2c1=O [Compound 390]
36 |  |  | > 76% | 9.41 | CC(=O)NCCn1ccc2c(NC(=O)Cc3ccc(Cl)c(C(F)(F)F)c3)cccc2c1=O [Compound 391]
37 |  |  | > 76% | 9.13 | CC(=O)NCCn1ccc2c(NC(=O)Cc3ccc(F)c(F)c3)cccc2c1=O [Compound 392]
38 |  | > 75 µM | > 76% | 8.03 | Cc1ccc2c(=O)n([C@H](C)CO)ccc2c1NC(=O)Cc1cccc(C(F)(F)F)c1F [Compound 395]
39 |  |  | > 76% | 7.97 | Cc1ccc2c(=O)n(CCO)ccc2c1NC(=O)Cc1cccc(C(F)(F)F)c1F [Compound 396]
40 |  | 51 to 75 µM (≈ 21.3 to 31.4 µg/mL) | > 76% | 7.19 | Cc1ccc2c(=O)n([C@H](C)CO)ccc2c1NC(=O)Cc1ccc(C(F)(F)F)cc1 [Compound 397]
